Results as given in patent US20250073249A1, “STEROID COMPOUND, AND PREPARATION METHOD THEREFOR AND USE THEREOF” (SHANGHAI INSTITUTE OF MATERIA MEDICA, CHINESE ACADEMY OF …, priority 2022, published 2025).

Tests used:
Format in all cases: cell-based
LNCaP cells = assay: In vitro LNCaP cell proliferation inhibition test (CellTiter-Glo); details: 6 days
Method: (§1) The cells were then digested with trypsin and counted using an automated cell counter to determine cell density. The cell suspension was diluted to the desired density in growth medium. Subsequently, 100 μL of the cell suspension was seeded into 96-well plates and incubated at 37° C. with 5% CO2 for 24 hours. 10 μL of drug solution (including 3-fold serial dilutions of compounds or DMSO) was added to each well, and the plates were incubated at 37° C. with 5% CO2 for 6 days. Prior to measurement, the assay plates were equilibrated to room temperature. 40 μL of CellTiter-Glo® reagent was added to each well. The plates were mixed on an orbital shaker for 2 minutes to induce cell lysis. After incubation at room temperature for 60 minutes to stabilize the luminescence signal, the plates were read on an Envision plate reader.

[1] = system: 22RV1 prostate cancer cells; assay: Anti-proliferative activity against resistant 22RV1 cells expressing AR-V7; details: for Activity against tumor cells expressing AR splice variants: 22RV1 cells, in words
Method: as §1
The experimental procedure was essentially the same as that for LNCaP cells.

AR = target: T1, AR (Homo sapiens, UniProt P10275, T878A); assay: In vitro AR degradation activity test in LNCaP cells (ELISA, OD450); details: LNCaP cells, 24 hours
T1 construct: endogenous in cells; host or cells: LNCaP
T1 sequence (P10275 1-920 T878A): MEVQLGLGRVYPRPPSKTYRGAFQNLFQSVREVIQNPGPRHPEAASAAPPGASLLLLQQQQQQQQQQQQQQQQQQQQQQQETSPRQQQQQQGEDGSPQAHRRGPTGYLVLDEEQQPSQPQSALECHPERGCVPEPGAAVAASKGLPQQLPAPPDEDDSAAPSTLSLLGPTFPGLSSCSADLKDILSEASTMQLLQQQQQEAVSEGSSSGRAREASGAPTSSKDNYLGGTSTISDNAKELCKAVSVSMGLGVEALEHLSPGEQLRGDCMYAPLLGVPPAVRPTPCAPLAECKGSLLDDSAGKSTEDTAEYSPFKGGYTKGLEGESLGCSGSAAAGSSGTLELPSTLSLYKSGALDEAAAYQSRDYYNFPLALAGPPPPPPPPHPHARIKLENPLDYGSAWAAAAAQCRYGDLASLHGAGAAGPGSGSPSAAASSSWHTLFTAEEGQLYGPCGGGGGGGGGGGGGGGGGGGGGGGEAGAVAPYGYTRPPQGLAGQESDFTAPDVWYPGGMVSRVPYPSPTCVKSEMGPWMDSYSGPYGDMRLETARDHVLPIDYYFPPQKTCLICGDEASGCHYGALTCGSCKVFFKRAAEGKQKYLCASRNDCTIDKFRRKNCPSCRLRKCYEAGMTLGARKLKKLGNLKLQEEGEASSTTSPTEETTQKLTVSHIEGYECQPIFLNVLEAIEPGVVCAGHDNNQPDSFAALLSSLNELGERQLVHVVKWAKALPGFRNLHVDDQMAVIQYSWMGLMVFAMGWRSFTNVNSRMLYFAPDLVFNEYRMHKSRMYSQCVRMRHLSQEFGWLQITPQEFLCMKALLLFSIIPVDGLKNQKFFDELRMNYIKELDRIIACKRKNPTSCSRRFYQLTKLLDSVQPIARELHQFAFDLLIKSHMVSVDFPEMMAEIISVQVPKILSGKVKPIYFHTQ
Method: The cells were then digested with trypsin and counted using an automated cell counter. The cell suspension was diluted to the desired density in growth medium. The cell suspension was then seeded into 96-well plates at 100 μL per well, and the plates were incubated at 37° C. with 5% CO2 for 24 hours. The compounds were then diluted 200-fold to the final concentration with DMSO or 3-fold to the final concentration with culture medium. 50 μL of compound solution was transferred to the 96-well plate and incubated at 37° C. for 24 hours. After 24 hours of incubation, the cell plate was washed 3 times with DPBS, 100 μL of 1× lysis buffer was added to each well, and placed on ice for 30 minutes. The supernatant was collected. The protein in the cell lysate samples was quantified and then diluted to the required concentration. 100 μL of cell lysate sample was added to the appropriate wells, sealed with tape and pressed firmly on top of the wells, and the plate was incubated at 37° C. for 2 hours. The plate contents were then discarded, and washed 4 times with 1× wash buffer, 200 μL per well each time. 100 μL of reconstituted detection antibody was then added, the plate was sealed with tape and incubated at 37° C. for 1 hour. The aspiration/wash step was then repeated, 100 μL of reconstituted HRP-Linked secondary antibody was added to each well, the plate was sealed with tape and incubated at 37° C. for 30 minutes. The aspiration/wash step was then repeated, 100 μL of substrate solution was added to each well and incubated at 37° C. for 10 minutes, and finally 100 μL of stop solution was added to each well. The plate was gently tapped to ensure thorough mixing, and the OD450 nm was recorded.
Degradation rate (%)=(OD450_max−OD450_sample)/(OD450_max−OD450_min)×100,plotted using GraphPad Prism 5 software, and IC50 is calculated using SPSS software.

TMPRSS2 = TMPRSS2 mRNA expression in A549 cells (qPCR); details: for TMPRSS2 mRNA level: 10 μM, 1 nM DHT, 48 h, Blank = 1
ACE2 = ACE2 mRNA expression in A549 cells (qPCR); details: for ACE2 mRNA level: 10 μM, 1 nM DHT, 48 h, Blank = 1

| SMILES | Activity against tumor cells expressing AR splice variants [1] | TMPRSS2 mRNA level (TMPRSS2) | ACE2 mRNA level (ACE2) | further results |
| --- | --- | --- | --- | --- |
| CNC(=O)c1ccc(N2C(=S)N(c3ccc(C#N)c(C(F)(F)F)c3)C(=O)C2(C)C)cc1F [Enzalutamide, enzalutamide, reference compound] | no activity | – | – | Maximum Inhibition (%) (LNCaP cells): 55.16% |
| C[C@]12CC[C@H](NC(=O)c3ccnnc3)CC1=CCC1C2CC[C@]2(C)C(n3cnc([N+](=O)[O-])c3)=CCC12 (some centres unmarked) [Compound 21] | – | 0.196 | 0.234 | DC50 (AR): 3.31 µM; Expression of TMPRSS2 protein, in words (TMPRSS2): significantly downregulate; Expression of ACE2 protein, in words (ACE2): significantly downregulate |
| CNC(=O)c1ccc(N2C(=S)N(c3cnc(C#N)c(C(F)(F)F)c3)C(=O)C23CCC3)cc1F [Apalutamide, apalutamide] | no activity | – | – | IC50 ([1]; Homo sapiens, 22RV1 cells expressing AR-V7 splice variant, read-out: Antiproliferative activity IC50): > 10 µM |
| CC1(C)C(=O)N(c2ccc(C#N)c(C(F)(F)F)c2F)C(=S)N1c1ccc(CCCc2ncco2)nc1 [Proxalutamide, proxalutamide, reference compound] | – | 0.608 | 0.463 | – |
